# In publication PMC9304232 (Epilepsia, 2022):
# Read-outs that look alike come from different tables or passages of the source.
# How the values were obtained:
# hNaV1.6 [1] = target: T1, hNaV1.6 (Homo sapiens, UniProt Q9UQD0); assay: Peak INa tonic block; format: cell-based; settings: for Peak INa TB, slope: Hill slope; for Peak INa TB, slope / Ratio to persistent INa (peak INa TB): hNaV1.6; for Ratio to persistent INa (peak INa TB): TB IC50 / persistent INa IC50
# hNaV1.6 [2] = target: T1, hNaV1.6; assay: Peak INa use‐dependent block; format: cell-based; settings: for Peak INa UDB, 10 Hz, slope: Hill slope; for Peak INa UDB, 10 Hz, slope / Ratio to persistent INa (peak INa UDB) / Ratio to peak INa TB (peak INa UDB): hNaV1.6; for Use‐dependent block at a stimulation frequency of 10 Hz: hNaV1.6, Figure 2E,F; for Ratio to persistent INa (peak INa UDB): UDB IC50 / persistent INa IC50; for Ratio to peak INa TB (peak INa UDB): preference of use‐dependent block over tonic block
# male CD‐1 mice [3] = assay: Mouse maximal electroshock seizure; format: in vivo; settings: for EC50: Mus musculus; for MES ED50 (increasing latency to tonic extension seizures): PRAX‐562 po, CBZ and LTG ip
# male CD‐1 mice [4] = assay: Mouse spontaneous locomotor activity; format: in vivo; settings: for sLMA TD50: PRAX‐562 po, CBZ and LTG ip, dose reducing sLMA by 50%; for sLMA TC50, free brain: calculated free brain concentration
# male CD‐1 mice [5] = assay: Protective index; format: in vivo, mouse; settings: for PI (plasma TC50/plasma EC50): based on free plasma concentrations
# hNaV1.6 [6] = target: T1, hNaV1.6; assay: ATX‐II‐induced persistent INa, whole‐cell patch clamp; settings: for Persistent INa, slope: Hill slope of IC50 fit, hNaV1.6
# hNaV1.6 [7] = target: T1, hNaV1.6; assay: Peak INa voltage‐dependent block; settings: for Peak INa VDB, slope: Hill slope; for Ratio to persistent INa (peak INa VDB): VDB IC50 / persistent INa IC50
# [8] = system: mice with Scn8a (NaV1.6‐N1768D/+, NaV1.6‐R1872W/+) or Scn2a (NaV1.2‐Q54) variants; settings: Scn8a or Scn2a gain‐of‐function variants; ref [20], [21], [22]; cited from earlier work
# hNaV1.1 [9] = target: T2, hNaV1.1 (Homo sapiens, UniProt P35498); assay: Peak INa tonic block, patch clamp; format: cell-based; settings: TB IC50 / persistent IC50
# hNaV1.2 [10] = target: T3, hNaV1.2 (Homo sapiens, UniProt Q99250); assay: Peak INa tonic block, patch clamp; format: cell-based; settings: TB IC50 / persistent IC50
# T3 sequence (Q99250 whole entry): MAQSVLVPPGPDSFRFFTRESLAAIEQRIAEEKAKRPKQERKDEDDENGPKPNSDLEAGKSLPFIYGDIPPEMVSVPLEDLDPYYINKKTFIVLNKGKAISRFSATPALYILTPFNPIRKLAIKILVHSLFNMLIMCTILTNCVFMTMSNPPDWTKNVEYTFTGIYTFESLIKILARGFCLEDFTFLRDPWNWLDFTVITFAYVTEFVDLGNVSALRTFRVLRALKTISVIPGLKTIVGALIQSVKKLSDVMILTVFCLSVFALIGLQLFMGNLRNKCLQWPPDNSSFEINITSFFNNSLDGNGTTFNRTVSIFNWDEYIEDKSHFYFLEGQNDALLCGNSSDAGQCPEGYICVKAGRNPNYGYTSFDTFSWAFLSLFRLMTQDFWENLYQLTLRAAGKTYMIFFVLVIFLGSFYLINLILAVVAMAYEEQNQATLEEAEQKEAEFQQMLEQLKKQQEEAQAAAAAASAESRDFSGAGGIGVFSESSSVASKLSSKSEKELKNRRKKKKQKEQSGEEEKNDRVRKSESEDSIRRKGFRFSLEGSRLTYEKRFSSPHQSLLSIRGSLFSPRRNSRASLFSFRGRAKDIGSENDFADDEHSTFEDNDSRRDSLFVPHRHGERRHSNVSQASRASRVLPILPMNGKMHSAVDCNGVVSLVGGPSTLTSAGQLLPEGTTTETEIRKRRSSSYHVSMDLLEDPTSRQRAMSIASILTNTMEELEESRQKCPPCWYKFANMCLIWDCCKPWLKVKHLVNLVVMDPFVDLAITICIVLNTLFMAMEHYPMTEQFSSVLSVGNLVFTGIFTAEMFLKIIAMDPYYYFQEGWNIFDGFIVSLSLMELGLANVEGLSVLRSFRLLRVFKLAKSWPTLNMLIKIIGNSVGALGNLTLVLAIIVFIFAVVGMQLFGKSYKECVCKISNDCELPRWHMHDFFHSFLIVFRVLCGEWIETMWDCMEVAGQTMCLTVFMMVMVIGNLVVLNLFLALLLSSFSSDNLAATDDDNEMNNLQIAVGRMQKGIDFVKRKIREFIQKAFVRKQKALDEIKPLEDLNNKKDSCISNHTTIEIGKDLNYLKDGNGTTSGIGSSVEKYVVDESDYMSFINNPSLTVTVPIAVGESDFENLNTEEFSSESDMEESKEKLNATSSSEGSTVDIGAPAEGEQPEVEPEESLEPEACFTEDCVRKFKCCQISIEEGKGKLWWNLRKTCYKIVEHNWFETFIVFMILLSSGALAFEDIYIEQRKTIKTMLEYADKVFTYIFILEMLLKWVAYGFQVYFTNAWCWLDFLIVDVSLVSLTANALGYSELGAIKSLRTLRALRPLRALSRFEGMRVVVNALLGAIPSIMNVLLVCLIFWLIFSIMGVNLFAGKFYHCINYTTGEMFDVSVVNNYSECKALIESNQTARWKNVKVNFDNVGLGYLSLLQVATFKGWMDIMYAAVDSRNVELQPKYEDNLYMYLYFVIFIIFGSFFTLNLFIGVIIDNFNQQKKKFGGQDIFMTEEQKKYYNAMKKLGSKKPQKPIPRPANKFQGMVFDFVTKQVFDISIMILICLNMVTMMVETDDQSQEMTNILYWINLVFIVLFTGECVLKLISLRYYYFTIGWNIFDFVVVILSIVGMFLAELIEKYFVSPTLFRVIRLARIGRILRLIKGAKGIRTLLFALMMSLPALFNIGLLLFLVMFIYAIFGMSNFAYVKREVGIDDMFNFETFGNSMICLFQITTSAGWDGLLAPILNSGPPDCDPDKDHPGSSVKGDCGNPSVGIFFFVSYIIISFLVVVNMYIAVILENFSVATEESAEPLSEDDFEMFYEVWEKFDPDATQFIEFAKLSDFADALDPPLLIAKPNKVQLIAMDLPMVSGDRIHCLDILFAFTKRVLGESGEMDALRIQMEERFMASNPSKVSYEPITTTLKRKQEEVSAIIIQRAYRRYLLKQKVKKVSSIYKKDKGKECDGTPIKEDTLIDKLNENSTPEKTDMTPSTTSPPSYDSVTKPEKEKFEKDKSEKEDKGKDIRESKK
# hNaV1.5 [11] = target: T4, hNaV1.5 (Homo sapiens, UniProt Q14524); assay: Peak INa tonic block, patch clamp; format: cell-based; settings: TB / persistent IC50
# hNaV1.1 [12] = target: T2, hNaV1.1; assay: Peak INa voltage‐dependent block, patch clamp; format: cell-based; settings: VDB IC50 / persistent IC50
# hNaV1.2 [13] = target: T3, hNaV1.2; assay: Peak INa voltage‐dependent block, patch clamp; format: cell-based; settings: VDB IC50 / persistent IC50
# hNaV1.5 [14] = target: T4, hNaV1.5; assay: Peak INa voltage‐dependent block, patch clamp; format: cell-based; settings: VDB IC50 / persistent IC50
# [15] = system: hippocampal CA1 pyramidal neurons; assay: Evoked action potential firing; format: cell-based; settings: wild‐type mouse CA1 neurons
# [16] = male CD‐1 mice, po, total brain
# T1 sequence (Q9UQD0 whole entry): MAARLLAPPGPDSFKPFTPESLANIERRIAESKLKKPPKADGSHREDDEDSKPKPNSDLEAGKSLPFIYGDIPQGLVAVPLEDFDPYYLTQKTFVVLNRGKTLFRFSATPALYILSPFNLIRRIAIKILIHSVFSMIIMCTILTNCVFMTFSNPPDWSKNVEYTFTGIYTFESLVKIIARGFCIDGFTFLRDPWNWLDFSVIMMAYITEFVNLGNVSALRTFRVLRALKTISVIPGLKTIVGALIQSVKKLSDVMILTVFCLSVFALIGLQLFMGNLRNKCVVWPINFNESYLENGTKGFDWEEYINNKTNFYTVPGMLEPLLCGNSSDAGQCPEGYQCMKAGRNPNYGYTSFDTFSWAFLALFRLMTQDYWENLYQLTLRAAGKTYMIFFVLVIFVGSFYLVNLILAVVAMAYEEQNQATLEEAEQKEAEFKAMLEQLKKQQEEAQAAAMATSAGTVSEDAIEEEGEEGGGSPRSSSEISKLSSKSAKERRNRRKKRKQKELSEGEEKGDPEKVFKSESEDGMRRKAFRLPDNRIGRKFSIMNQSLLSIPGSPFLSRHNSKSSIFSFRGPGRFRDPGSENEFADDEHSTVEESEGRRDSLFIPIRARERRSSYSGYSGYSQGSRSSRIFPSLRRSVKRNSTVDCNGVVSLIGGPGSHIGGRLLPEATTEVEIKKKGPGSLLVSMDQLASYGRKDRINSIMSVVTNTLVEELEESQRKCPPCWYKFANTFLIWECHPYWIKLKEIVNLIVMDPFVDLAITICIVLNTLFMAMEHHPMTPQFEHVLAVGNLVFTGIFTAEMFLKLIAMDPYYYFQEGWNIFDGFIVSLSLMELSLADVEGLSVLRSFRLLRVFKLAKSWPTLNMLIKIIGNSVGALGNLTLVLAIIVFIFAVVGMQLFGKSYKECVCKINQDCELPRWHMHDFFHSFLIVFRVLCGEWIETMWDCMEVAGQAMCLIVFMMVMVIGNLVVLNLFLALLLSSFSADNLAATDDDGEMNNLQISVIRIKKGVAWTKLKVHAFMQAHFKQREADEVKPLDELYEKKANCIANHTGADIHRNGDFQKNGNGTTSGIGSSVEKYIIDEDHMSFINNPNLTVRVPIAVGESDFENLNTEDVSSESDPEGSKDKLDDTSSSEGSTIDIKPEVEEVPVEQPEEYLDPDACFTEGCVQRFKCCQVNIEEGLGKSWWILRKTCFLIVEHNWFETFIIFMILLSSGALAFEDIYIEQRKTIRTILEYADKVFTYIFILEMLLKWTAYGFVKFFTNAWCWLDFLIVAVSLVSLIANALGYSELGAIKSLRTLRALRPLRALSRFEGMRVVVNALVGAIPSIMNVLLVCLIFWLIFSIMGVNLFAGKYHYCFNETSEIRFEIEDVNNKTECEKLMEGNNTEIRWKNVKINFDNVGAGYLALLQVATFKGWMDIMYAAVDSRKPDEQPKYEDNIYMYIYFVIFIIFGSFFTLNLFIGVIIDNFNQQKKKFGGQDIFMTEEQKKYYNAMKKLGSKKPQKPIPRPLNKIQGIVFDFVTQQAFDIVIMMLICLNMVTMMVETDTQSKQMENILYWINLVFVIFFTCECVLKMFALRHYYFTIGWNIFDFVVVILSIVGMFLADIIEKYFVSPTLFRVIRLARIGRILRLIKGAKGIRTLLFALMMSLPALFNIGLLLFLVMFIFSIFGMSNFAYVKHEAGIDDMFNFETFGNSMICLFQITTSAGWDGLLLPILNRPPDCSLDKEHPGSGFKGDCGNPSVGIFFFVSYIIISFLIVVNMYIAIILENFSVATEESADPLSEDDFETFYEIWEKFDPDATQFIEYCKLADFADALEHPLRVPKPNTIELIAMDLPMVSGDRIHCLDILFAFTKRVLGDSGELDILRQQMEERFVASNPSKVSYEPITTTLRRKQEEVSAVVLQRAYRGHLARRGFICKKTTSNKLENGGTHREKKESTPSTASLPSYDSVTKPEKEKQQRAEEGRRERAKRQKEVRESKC
structure (smiles),measurement,setting,value
"NC(=O)N1c2ccccc2C=Cc2ccccc21 [Carbamazepine, carbamazepine]","Peak INa TB, slope",hNaV1.6 [1],1.0
same,"Peak INa UDB, 10 Hz, slope",hNaV1.6 [2],.9
same,Use‐dependent block at a stimulation frequency of 10 Hz,hNaV1.6 [2],not observed
same,EC50,"male CD‐1 mice [3]; read-out: MES EC50, free brain",2410 nM
same,MES ED50 (increasing latency to tonic extension seizures),"male CD‐1 mice [3]; male CD‐1 mice, listed as CBZ",3.4 mg/kg
same,Sedation/sLMA at the dose required for complete seizure prevention,male CD‐1 mice [4]; ip,significant reduction in sLMA
same,sLMA TD50,"male CD‐1 mice [4]; male CD‐1 mice, listed as CBZ",26.5 mg/kg
same,"sLMA TC50, free brain",male CD‐1 mice [4]; male CD‐1 mice,14 350 nmol·L^–1
same,PI (plasma TC50/plasma EC50),male CD‐1 mice [5],3.4
same,"Persistent INa, slope",hNaV1.6 [6],1.1
same,IC50,"hNaV1.6 [6]; Persistent INa, IC50, hNaV1.6, 200 nmol·L^–1 ATX‐II, holding −120 mV",77500 nM
same,"Peak INa VDB, slope",hNaV1.6 [7],.9
NC(=O)O[C@@H](Cn1ncnn1)c1ccccc1Cl [Cenobamate],"Peak INa TB, slope",hNaV1.6 [1],1.1
same,Ratio to persistent INa (peak INa TB),hNaV1.6 [1],24
same,"Peak INa UDB, 10 Hz, slope",hNaV1.6 [2],.7
same,Ratio to persistent INa (peak INa UDB),hNaV1.6 [2],11
same,Ratio to peak INa TB (peak INa UDB),hNaV1.6 [2],2.3
same,"Persistent INa, slope",hNaV1.6 [6],1.1
same,"Peak INa VDB, slope",hNaV1.6 [7],.9
same,Ratio to persistent INa (peak INa VDB),hNaV1.6 [7],.9
COC[C@@H](NC(C)=O)C(=O)NCc1ccccc1 [Lacosamide],"Peak INa UDB, 10 Hz, slope",hNaV1.6 [2],1.3
same,Ratio to persistent INa (peak INa UDB),hNaV1.6 [2],.8
same,"Persistent INa, slope",hNaV1.6 [6],.9
same,"Peak INa VDB, slope",hNaV1.6 [7],1.2
same,Ratio to persistent INa (peak INa VDB),hNaV1.6 [7],.3
"Nc1nnc(-c2cccc(Cl)c2Cl)c(N)n1 [Lamotrigine, lamotrigine]","Peak INa TB, slope",hNaV1.6 [1],.8
same,"Peak INa UDB, 10 Hz, slope",hNaV1.6 [2],1.0
same,Use‐dependent block at a stimulation frequency of 10 Hz,hNaV1.6 [2],not observed
same,EC50,"male CD‐1 mice [3]; read-out: MES EC50, free brain",2750 nM
same,MES ED50 (increasing latency to tonic extension seizures),"male CD‐1 mice [3]; male CD‐1 mice, listed as LTG",5.0 mg/kg
same,sLMA TD50,"male CD‐1 mice [4]; male CD‐1 mice, listed as LTG",37.6 mg/kg
same,"sLMA TC50, free brain",male CD‐1 mice [4]; male CD‐1 mice,12 853 nmol·L^–1
same,"Persistent INa, slope",hNaV1.6 [6],1.0
same,"Peak INa VDB, slope",hNaV1.6 [7],.9
NC(=O)N1c2ccccc2CC(=O)c2ccccc21 [Oxcarbazepine],"Peak INa TB, slope",hNaV1.6 [1],1.7
same,Ratio to persistent INa (peak INa TB),hNaV1.6 [1],8
same,"Persistent INa, slope",hNaV1.6 [6],1.0
same,"Peak INa VDB, slope",hNaV1.6 [7],1.1
same,Ratio to persistent INa (peak INa VDB),hNaV1.6 [7],.3
FC(F)(F)Oc1ccc(-c2ccc3nnc(C(F)(F)F)n3c2)cc1 [PRAX‐330],Seizures and premature death in NaV DEE mouse models,[8],protected mice from seizures and premature death
"CCOC(F)(F)c1nnc2cnc(-c3cnc(OCC(F)(F)F)c(F)c3)cn12 [PRAX‐562, 3‐[ethoxydifluoromethyl]‐6‐[5‐fluoro‐6‐(2,2,2‐trifluoroethoxy)pyridin‐3‐yl]‐[1,2,4]triazolo[4,3‐a]pyrazine]","Peak INa TB, slope",hNaV1.6 [1],1.0
same,IC50,"hNaV1.6 [1]; Peak INa TB, IC50, hNaV1.6 tonic block, .1 Hz",8470 nM
same,Ratio to persistent INa (peak INa TB),hNaV1.6 [1],60
same,"Peak INa UDB, 10 Hz, slope",hNaV1.6 [2],1.3
same,Ratio to persistent INa (peak INa UDB),hNaV1.6 [2],2
same,Ratio to peak INa TB (peak INa UDB),hNaV1.6 [2],31
same,"Ratio to Persistent INa (Peak INa TB), hNaV1.1",hNaV1.1 [9],173
same,"Ratio to Persistent INa (Peak INa TB), hNaV1.2",hNaV1.2 [10],80
same,"Ratio to Persistent INa (Peak INa TB), hNaV1.5",hNaV1.5 [11],> 174
same,"Ratio to Persistent INa (Peak INa VDB), hNaV1.1",hNaV1.1 [12],6.3
same,"Ratio to Persistent INa (Peak INa VDB), hNaV1.2",hNaV1.2 [13],8.2
same,"Ratio to Persistent INa (Peak INa VDB), hNaV1.5",hNaV1.5 [14],5.8
same,"Intrinsic excitability, number of evoked APs",[15]; .3 µmol·L^–1,significantly reduced
same,AP amplitude,"[15]; .3 µmol·L^–1, +200 pA",minimal effects
same,Mice that did not exhibit tonic seizures,"male CD‐1 mice [3]; 10 mg/kg po, 30 min before MES",11 of 12
same,EC50,"male CD‐1 mice [3]; po, read-out: MES EC50, plasma",0.0901 µg/mL
same,EC50,"male CD‐1 mice [3]; po, read-out: MES EC50, plasma, free",17.9 nM
same,EC50,"male CD‐1 mice [3]; read-out: MES EC50, free brain",4.3 nM
same,"MES EC50, brain",male CD‐1 mice [3]; [16],116 ng/g
same,Effect on locomotor function,male CD‐1 mice [4]; 10 mg/kg po,no effect
same,Distance moved in sLMA,male CD‐1 mice [4]; 20 and 40 mg/kg po,reductions in the distance moved
same,"sLMA TC50, plasma, free","male CD‐1 mice [4]; male CD‐1 mice, po, free plasma",308.9 nmol·L^–1
same,"sLMA TC50, brain",male CD‐1 mice [4]; [16],1899 ng/g
same,"sLMA TC50, plasma","male CD‐1 mice [4]; male CD‐1 mice, po, total plasma",1.553 µg/mL
same,"sLMA TC50, free brain",male CD‐1 mice [4]; male CD‐1 mice,69.7 nmol·L^–1
same,PI wider compared to CBZ and LTG,"male CD‐1 mice [5]; acute, MES and sLMA models",3 ×
same,PI (plasma TC50/plasma EC50),male CD‐1 mice [5],~17
same,"Persistent INa, slope",hNaV1.6 [6],1.2
same,"Peak INa VDB, slope",hNaV1.6 [7],1.0
same,Ratio to persistent INa (peak INa VDB),hNaV1.6 [7],2.2
O=C1NC(=O)C(c2ccccc2)(c2ccccc2)N1 [Phenytoin],"Peak INa UDB, 10 Hz, slope",hNaV1.6 [2],.6
same,Ratio to persistent INa (peak INa UDB),hNaV1.6 [2],15
same,"Persistent INa, slope",hNaV1.6 [6],.8
same,"Peak INa VDB, slope",hNaV1.6 [7],1.0
same,Ratio to persistent INa (peak INa VDB),hNaV1.6 [7],.8
